Reference: PubChem BioAssay (NCI)
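Each compound was tested at five concentrations against cells in 96-well plates for 48 hours. TGI: concentration producing complete growth inhibition.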

Key:
Assay in all cases: inhibition of tumour cell growth, NCI panel, 48 h
[1] = test system: EKVX NSCLC
[2] = test system: HOP-92 NSCLC
[3] = test system: OVCAR-4 ovarian
[4] = test system: A498 renal
[5] = test system: TK-10 renal
[6] = test system: MALME-3M melanoma
[7] = test system: OVCAR-8 ovarian
[8] = test system: IGROV1 ovarian
[9] = test system: NCI-H522 lung
[10] = test system: RXF 393 renal
[11] = test system: MDA-MB-435

SMILES	TGI [1]	TGI [2]	TGI [3]	TGI [4]	TGI [5]	TGI [6]	TGI [7]	TGI [8]	TGI [9]	TGI [10]	TGI [11]
Oc1ccccc1C=Nc1ccc(-c2nc3ccccc3[nH]2)cc1	> 100 µM	> 100 µM	> 100 µM	> 100 µM	> 100 µM	> 100 µM	> 100 µM	> 100 µM	> 100 µM	> 100 µM	> 100 µM
CCOc1ccc(NC(=O)/C(=N\NC(C)(C)C)C2C(=O)Nc3ccccc3S2=O)cc1 (configuration not stated)	> 100 µM	> 100 µM	> 100 µM	> 100 µM	> 100 µM	> 100 µM	> 100 µM	> 100 µM	> 100 µM	> 100 µM	> 100 µM
COc1cc(C)cc2c1c(=O)c1ccccc1n2C	> 100 µM	91.8 µM	> 100 µM	89.2 µM	> 100 µM	> 100 µM	> 100 µM	> 100 µM	> 100 µM	73.8 µM	> 100 µM
C[C@]12Cc3cnn(-c4ccc(F)cc4)c3NC1CC[C@@H]1C2CC[C@@]2(C)C1CC[C@@H]2O (some centres not stated)	25.4 µM	24.7 µM	27.5 µM	23 µM	34 µM	23.7 µM	27.9 µM	28.5 µM	25.4 µM	5.09 µM	20.8 µM
Cc1cc(-c2nc3ccccc3s2)ccc1N	> 95.3 µM	> 100 µM	> 84.1 µM	> 94.5 µM	> 100 µM	> 81.5 µM	> 89.3 µM	> 100 µM	> 61.6 µM	98.7 µM	> 79.8 µM
CCCCSC1=N/C(=C\c2ccc(N(C)C)cc2)C(NN)=N1	> 100 µM	> 100 µM	> 100 µM	> 100 µM	> 100 µM	> 100 µM	> 100 µM	> 100 µM	> 100 µM	> 100 µM	> 100 µM
Cc1cccc(CC(Cc2c(C)cccc2C(=O)O)C(=O)O)c1 (configuration not stated)	> 100 µM		> 100 µM	> 100 µM	> 100 µM	> 100 µM	> 100 µM	> 100 µM	> 100 µM	> 100 µM	> 100 µM
N#CC(C#N)=C(N)/C(C#N)=C/c1ccc2ccccc2n1	> 100 µM	> 100 µM	> 100 µM	> 100 µM	> 100 µM	> 100 µM	> 100 µM	38.2 µM		42.1 µM	> 100 µM
O=C(Nc1nn(C(=O)c2ccc(Cl)cc2)c(=O)s1)c1ccc(Cl)cc1	> 100 µM	> 100 µM	> 100 µM	> 100 µM	> 100 µM	> 100 µM	> 100 µM	> 100 µM	> 100 µM	> 100 µM	> 100 µM
CC(C)(C)OC(=O)N(O)CCCn1cnc2c(N)ncnc21	> 100 µM	> 100 µM	> 100 µM	> 100 µM	> 100 µM	> 100 µM	> 100 µM	> 100 µM	> 100 µM	> 100 µM	> 100 µM
CCCCOC(=O)NC(Nc1cccc(C(F)(F)F)c1)(C(F)(F)F)C(F)(F)F	> 100 µM	64.7 µM	> 100 µM	> 100 µM	> 100 µM	> 100 µM	> 100 µM	> 100 µM	> 100 µM	> 100 µM	> 100 µM
CCOC(=O)C(C(=O)c1ccccc1C(=O)OC)=P(c1ccccc1)(c1ccccc1)c1ccccc1	> 10 µM	> 10 µM	> 10 µM	> 10 µM	> 10 µM	> 10 µM	> 10 µM	> 10 µM	> 10 µM	> 10 µM	> 10 µM
CC(=O)NNc1nc(C)c(C(/C=C/c2ccc([N+](=O)[O-])cc2)=N/NC(N)=S)s1	> 100 µM	> 100 µM	> 100 µM	> 100 µM	> 100 µM	> 100 µM	> 100 µM	> 100 µM	> 100 µM	> 100 µM	> 100 µM
CC(C)(C)c1cc2c(O)c(c1)Cc1cc(C(C#N)(Cc3ccc4ccccc4c3)Cc3ccc4ccccc4c3)cc(c1O)Cc1cc(C(C)(C)C)cc(c1O)Cc1cc(C(C#N)(Cc3ccc4ccccc4c3)Cc3ccc4ccccc4c3)cc(c1O)C2	> 100 µM	> 100 µM	> 100 µM	> 100 µM	> 100 µM	> 100 µM	> 100 µM	> 100 µM	> 100 µM	> 100 µM	> 100 µM
